From PMC7370300, “Deciphering the Binding of Salicylic Acid to Arabidopsis thaliana Chloroplastic GAPDH-A1” (International Journal of Molecular Sciences, 2020)

Tests used:
Assay type in all cases: binding
[1] = biological target: T1, GAPA1 (chloroplastic glyceraldehyde 3-phosphate dehydrogenase A1) (Arabidopsis thaliana, UniProt P25856); experiment: SPR competition with immobilised 3-AESA; also inhibits GAPDH activity of purified GAPA1 ([…] at […])
T1 sequence (P25856 60-396): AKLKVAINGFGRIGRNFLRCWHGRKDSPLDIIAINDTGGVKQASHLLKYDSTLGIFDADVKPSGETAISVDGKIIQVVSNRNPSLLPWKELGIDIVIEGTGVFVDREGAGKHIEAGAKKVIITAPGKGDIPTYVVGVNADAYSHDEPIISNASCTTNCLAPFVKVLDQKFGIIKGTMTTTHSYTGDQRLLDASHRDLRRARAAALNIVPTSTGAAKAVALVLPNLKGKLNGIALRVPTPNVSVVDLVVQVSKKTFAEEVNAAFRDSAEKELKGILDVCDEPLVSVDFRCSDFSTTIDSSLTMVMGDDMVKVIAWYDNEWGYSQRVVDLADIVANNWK

[2] = biological target: GAPA1 (chloroplastic glyceraldehyde 3-phosphate dehydrogenase A1) (Arabidopsis thaliana, UniProt P25856, N94G); experiment: SPR on immobilised 3-AESA, […] protein; response diminished by […] versus WT
GAPA1 (chloroplastic glyceraldehyde 3-phosphate dehydrogenase A1) (Arabidopsis thaliana, UniProt P25856, N94G), sequence (P25856 60-396 N94G): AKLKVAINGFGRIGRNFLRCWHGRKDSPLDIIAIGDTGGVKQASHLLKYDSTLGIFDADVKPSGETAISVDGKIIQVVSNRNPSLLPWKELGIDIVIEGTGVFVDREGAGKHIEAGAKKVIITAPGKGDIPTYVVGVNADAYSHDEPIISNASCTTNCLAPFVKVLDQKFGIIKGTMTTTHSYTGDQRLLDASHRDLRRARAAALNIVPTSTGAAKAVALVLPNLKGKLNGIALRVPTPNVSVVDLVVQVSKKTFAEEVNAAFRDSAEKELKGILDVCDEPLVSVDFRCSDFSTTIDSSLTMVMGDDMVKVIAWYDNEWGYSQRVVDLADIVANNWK

[3] = biological target: GAPA1 (chloroplastic glyceraldehyde 3-phosphate dehydrogenase A1) (Arabidopsis thaliana, UniProt P25856, W378L); experiment: SPR on immobilised 3-AESA
GAPA1 (chloroplastic glyceraldehyde 3-phosphate dehydrogenase A1) (Arabidopsis thaliana, UniProt P25856, W378L), sequence (P25856 60-396 W378L): as the sequence (P25856 60-396 N94G) above, with G35N, W319L counted along it

[4] = biological target: T1, GAPA1 (chloroplastic glyceraldehyde 3-phosphate dehydrogenase A1); experiment: SPR (Biacore […]), 3-AESA immobilised via its amino group on CM5 chip, […] Langmuir fit
[5] = biological target: T1, GAPA1 (chloroplastic glyceraldehyde 3-phosphate dehydrogenase A1); experiment: SPR competition with immobilised 3-AESA (competition seen from […] NADH)

In the case of `O=C(O)c1ccccc1O` [SA, 2-hydroxybenzoic acid], the “SPR competition with immobilised 3-AESA; also inhibits GAPDH activity of purifie” value [1] is reported as “GAPA1 association with immobilised 3-AESA was inhibited by the presence of SA in a running buffer in a concentration-dependent manner”.

With `NCCc1cccc(C(=O)O)c1O` [3-AESA, 3-aminoethyl salicylic acid] the “SPR on immobilised 3-AESA, 50 nM protein; response diminished by 66% versus WT” value [2] was “No complete loss of ability to bind 3-AESA was observed in these mutated proteins”, the “SPR on immobilised 3-AESA” value [3] was “the ability of GAPA1 Trp319Leu to bind 3-AESA was not affected” and the Kd [4] was 16.7 ± 5.7 nM.

`NC(=O)C1=CN([C@@H]2O[C@H](COP(=O)(O)OP(=O)(O)OC[C@H]3O[C@@H](n4cnc5c(N)ncnc54)[C@H](O)[C@@H]3O)[C@@H](O)[C@H]2O)C=CC1` [NADH] was tested, and the “SPR competition with immobilised 3-AESA (competition seen from 2 μM NADH)” value [5] was “pre-incubation of GAPA1 on ice with NADH reduced the level of GAPA1 association with immobilised 3-AESA”.
